Assay results: patent publication US20030166138A1, “Cyclic peptides and analogs useful to treat allergies” (priority 2002, published 2003)
Entries after “also recorded” stand apart in the source; their conditions may differ.

How the values were obtained:
germline ε promoter = experiment: GFP reporter assay of IL-4 induced ε promoter-driven transcription in naive A5T4 cells (phenotype transfer); format: cell-based; details: for activity in blocking epsilon promoter transcription (GFP reporter) when presented in the mutant intein context: mutant intein construct; for activity in blocking epsilon promoter transcription (GFP reporter) when presented in the mutant intein context / Mutant Reporter Ratio (± std) / Wild-Type Reporter Ratio (± std): naive A5T4 cells; for Mutant Reporter Ratio (± std): mutant intein construct (non-cyclic, splicing-deficient), IL-4 stimulated, GFP fluorescence; for Wild-Type Reporter Ratio (± std): wild-type intein construct (cyclic peptide), IL-4 30 U/ml, GFP fluorescence BFP−/BFP+, average of 3 values
Source text: To establish the A5T4 reporter cell line, BJAB cells were infected with a retroviral vector containing an IL-4 responsive 600 bp fragment of the epsilon promoter (Pε) followed by a fusion nucleic acid encoding HBEGF-2a-GFP and a polyadenylation sequence cloned in the reverse orientation into pCGSin (Lorens et al., 2000, Mol. Ther. 1:438-447). Infected cells were induced with IL-4 and single cell sorted by FACS for GFP reporter expression. One of the cell clones identified with the desired profile was designated A5. This cell line was infected with the CtTAIH retroviral vector expressing tTA-VP16 ires hygromycin phosphotranferase gene (Lorens et al., 2000, Virology 272:7) selected with hygromycin and single cell cloned. The clone selected for the screening cell line was characterized for tetracycline regulation and was designated A5T4.
Referring to FIG. 9 or 10, after single cell clones had expanded, cells were replica-plated and grown in the presence or absence of 100 ng/ml Dox for 4 days. Both plates were then stimulated with IL-4 (30 U/ml) and, after 3 more days, both populations were analyzed by FACS to measure GFP fluorescence. FACS data were converted to reporter ratios, which are defined as the ratio of the geometric mean of GFP fluorescence of the +IL-4/+Dox (peptide off) population over the geometric mean of the +IL-4/−Dox (peptide on) population. Cells expressing a cyclic peptide that inhibits germline ε transcription have reporter ratios of >1.1, typically >1.12, >1.13, >1.14 or >1.15.
Phoenix packaging cells were transfected with the retroviral vector illustrated in FIG. 6A encoding a particular cyclic peptide as described in WO 97/27213. Naïve A5T4 cells were infected with the resultant retrovirons and grown for three days. The infected cells (BFP^+) were stimulated with IL-4 (30 U/ml) and, after three days, were assessed by FACS for BFP and GFP fluorescence.
The GFP fluorescence data corresponding to the BFP^−/BFP^+in the presence of IL-4 stimulation were obtained for 34 clones and reporter ratios were calculated therefrom. […] Three others had reporter wt ratios in the range of about 1.12-1.2. The names of the clones, sequences of the regions of the polynucleotides encoding the cyclic peptides SEQ ID NOS:1-23, the sequences of the expressed cyclic peptides SEQ ID NOS:1-23 and their respective reporter ratios are provided in TABLE 1, below (“wild-type” reporter ratios; each reporter ratio is the average of 3 values):
As discussed previously, intein splicing is dependent upon the presence of nucleophilic residues at the splice junctions (underlined in FIG. 6A; see Perler & Adam, 2000, Curr. Opin. Biotechnol. 11:377-383). To confirm that the inhibitory activity of the clones of TABLE 1 was due to the expression of a cyclic peptide, mutants were created that lacked the ability to catalyze the splicing reaction due to the replacement of these three critical underlined nucleophilic residues with alanines. These mutants (illustrated in FIG. 6B) were then used to infect naive A5T4 cells as described above.

[1] = system: endogenous germline ε promoter; experiment: Quantitative real time PCR (Taqman) of endogenous germline ε transcript in A5T4 cells; format: cell-based; details: mutant intein context, +IL-4
Experimental: The ability of cyclic peptides SEQ ID NOS:1-20 to inhibit transcription of an endogenous germline ε promoter was confirmed using quantitative real time PCR (Taqman®; Applied Biosystems, Foster City, Calif.). Briefly, A5T4 cells were infected with retrovirus capable of expressing the cyclic peptides (prepared as described above). Cells were first sorted for BFP to ensure that they were retrovirally infected. Several different assay conditions were tested: −Dox/-IL-4, −Dox/+IL-4, +Dox/-IL-4, +Dox/+IL-4. All experiments were conducted in triplicate. BFP positive sorted cells were thereafter maintained in Dox (peptide off). To obtain the −Dox condition, cells were washed 2× with media and maintained in Dox-free culture for 72 hours. Cells in +/−Dox were split to 50,000 cells per ml. The following day, IL-4 was added (30 units/ml) and cells were incubated for 3 days before FACS analysis and pelleting for RNA extraction. The primers and probe used were as follows (the probe was labeled at the 5′-end with Fam and at the 3′-end with Tamra):
The probe spans a splice junction and thus will not detect contaminating DNA in the reaction assay. […] The epsilon inhibition ratio R was calculated by dividing the transcript expression values in the presence of Dox and IL-4 (+IL-4/+Dox) by values in the absence of Dox and presence of IL-4(+IL-4/−Dox). […]

cyclo(S A R F V) was tested, and the “activity in blocking epsilon promoter transcription (GFP reporter) when presented in the mutant intein context” value (from here on “activity”) (germline ε promoter) was “decrease in activity”, the “Mutant Reporter Ratio (± std)” value (germline ε promoter) was 1.43 ± 0.03 and the “Wild-Type Reporter Ratio (± std)” value (germline ε promoter) was 1.52 ± 0.04.

For cyclo(S D H S Q), the “activity” value (germline ε promoter) was “inactive”, the “Mutant Reporter Ratio (± std)” value (germline ε promoter) was 1.06 ± 0.06 and the “Wild-Type Reporter Ratio (± std)” value (germline ε promoter) was 1.20 ± 0.04.

cyclo(S E M F S I Q) was tested, and the “activity” value (germline ε promoter) was “inactive”, the “Mutant Reporter Ratio (± std)” value (germline ε promoter) was 1.13 ± 0.03 and the “Wild-Type Reporter Ratio (± std)” value (germline ε promoter) was 1.28 ± 0.03.

For cyclo(S F G R S), the “activity” value (germline ε promoter) was “inactive”, the “Mutant Reporter Ratio (± std)” value (germline ε promoter) was 1.08 ± 0.06 and the “Wild-Type Reporter Ratio (± std)” value (germline ε promoter) was 1.20 ± 0.02.

With cyclo(S F V T W) the “activity” value (germline ε promoter) was “decrease in activity”, the “Mutant Reporter Ratio (± std)” value (germline ε promoter) was 1.25 ± 0.06 and the “Wild-Type Reporter Ratio (± std)” value (germline ε promoter) was 1.46 ± 0.12.

With cyclo(S G A D S) the “activity” value (germline ε promoter) was “inactive”, the “Mutant Reporter Ratio (± std)” value (germline ε promoter) was 1.08 ± 0.05 and the “Wild-Type Reporter Ratio (± std)” value (germline ε promoter) was 1.23 ± 0.02.

cyclo(S L N R I) was tested, and the “activity” value (germline ε promoter) was “remained active”, the “Mutant Reporter Ratio (± std)” value (germline ε promoter) was 1.40 ± 0.08 and the “Wild-Type Reporter Ratio (± std)” value (germline ε promoter) was 1.45 ± 0.07.

For cyclo(S N F T F), the “activity” value (germline ε promoter) was “inactive; also recorded: did not strongly block”, the “Mutant Reporter Ratio (± std)” value (germline ε promoter) was 1.08 ± 0.05 and the “Wild-Type Reporter Ratio (± std)” value (germline ε promoter) was 1.28 ± 0.05. The “block of endogenous ε-transcription” value [1] was “clearly blocked”.

With cyclo(S N I P Q) the “activity” value (germline ε promoter) was “inactive”, the “Mutant Reporter Ratio (± std)” value (germline ε promoter) was 1.10 ± 0.02 and the “Wild-Type Reporter Ratio (± std)” value (germline ε promoter) was 1.20 ± 0.01.

In the case of cyclo(S P W K L V G), the “activity” value (germline ε promoter) is reported as “inactive”, the “Mutant Reporter Ratio (± std)” value (germline ε promoter) is reported as 1.02 ± 0.06 and the “Wild-Type Reporter Ratio (± std)” value (germline ε promoter) is reported as 1.27 ± 0.03.

In the case of cyclo(S R N W S H), the “activity” value (germline ε promoter) is reported as “inactive”, the “Mutant Reporter Ratio (± std)” value (germline ε promoter) is reported as 1.06 ± 0.04 and the “Wild-Type Reporter Ratio (± std)” value (germline ε promoter) is reported as 1.18 ± 0.04.

cyclo(S R R D R I) was tested, and the “activity” value (germline ε promoter) was “inactive”, the “Mutant Reporter Ratio (± std)” value (germline ε promoter) was 1.08 ± 0.04 and the “Wild-Type Reporter Ratio (± std)” value (germline ε promoter) was 1.31 ± 0.03.

With cyclo(S R R H C C H) the “Mutant Reporter Ratio (± std)” value (germline ε promoter) was 1.02 ± 0.03 and the “Wild-Type Reporter Ratio (± std)” value (germline ε promoter) was 1.09 ± 0.03.

In the case of cyclo(S R V E I), the “activity” value (germline ε promoter) is reported as “No significant difference; also recorded: inactive”, the “Mutant Reporter Ratio (± std)” value (germline ε promoter) is reported as 1.06 ± 0.06 and the “Wild-Type Reporter Ratio (± std)” value (germline ε promoter) is reported as 1.53 ± 0.16. The “inhibition of ε-promoter induction” value (germline ε promoter; net increase of geometric mean GFP fluorescence following IL-4 stimulation, BFP+ vs uninfected population, wild-type intein) was 51%.

For cyclo(S S C M R), the “Mutant Reporter Ratio (± std)” value (germline ε promoter) was 1.20 ± 0.12 and the “Wild-Type Reporter Ratio (± std)” value (germline ε promoter) was 1.12 ± 0.03.

cyclo(S S F T) was tested, and the “Mutant Reporter Ratio (± std)” value (germline ε promoter) was 1.05 ± 0.04 and the “Wild-Type Reporter Ratio (± std)” value (germline ε promoter) was 1.10 ± 0.03.

cyclo(S S L R W) was tested, and the “activity” value (germline ε promoter) was “decrease in activity”, the “Mutant Reporter Ratio (± std)” value (germline ε promoter) was 1.21 ± 0.02 and the “Wild-Type Reporter Ratio (± std)” value (germline ε promoter) was 1.31 ± 0.05.

For cyclo(S T G P R), the “activity” value (germline ε promoter) was “remained active”, the “Mutant Reporter Ratio (± std)” value (germline ε promoter) was 1.18 ± 0.04 and the “Wild-Type Reporter Ratio (± std)” value (germline ε promoter) was 1.19 ± 0.03.

cyclo(S V I E Q) was tested, and the “activity” value (germline ε promoter) was “decrease in activity”, the “Mutant Reporter Ratio (± std)” value (germline ε promoter) was 1.14 ± 0.04 and the “Wild-Type Reporter Ratio (± std)” value (germline ε promoter) was 1.22 ± 0.04.

In the case of cyclo(S V V T R), the “activity” value (germline ε promoter) is reported as “remained active”, the “Mutant Reporter Ratio (± std)” value (germline ε promoter) is reported as 1.26 ± 0.03 and the “Wild-Type Reporter Ratio (± std)” value (germline ε promoter) is reported as 1.19 ± 0.03.

For cyclo(S W A Q A), the “activity” value (germline ε promoter) was “inactive”, the “Mutant Reporter Ratio (± std)” value (germline ε promoter) was 1.10 ± 0.04 and the “Wild-Type Reporter Ratio (± std)” value (germline ε promoter) was 1.25 ± 0.02.

For cyclo(S Y F T S C W), the “activity” value (germline ε promoter) was “decrease in activity”, the “Mutant Reporter Ratio (± std)” value (germline ε promoter) was 1.27 ± 0.01 and the “Wild-Type Reporter Ratio (± std)” value (germline ε promoter) was 1.36 ± 0.07.

For cyclo(S Y S Q), the “activity” value (germline ε promoter) was “inactive”, the “Mutant Reporter Ratio (± std)” value (germline ε promoter) was 1.07 ± 0.01 and the “Wild-Type Reporter Ratio (± std)” value (germline ε promoter) was 1.18 ± 0.01.
